The term IC50 denotes the point on the concentration scale where inhibition reaches its midpoint.

Where two headings read alike, the source gives them in different places. A value given as a limit tells only on which side of the number the result lay.

What all share (assay type): binding
The target of experiment [1] is T1, CIB1 and αIIb interaction (GST-CIB1 : F-αIIb peptide) (Homo sapiens, UniProt Q99828).
T1 construct: made in house; host or cells: BL-21 plus RIL cells (E. coli)
T1 sequence (Q99828 1-191): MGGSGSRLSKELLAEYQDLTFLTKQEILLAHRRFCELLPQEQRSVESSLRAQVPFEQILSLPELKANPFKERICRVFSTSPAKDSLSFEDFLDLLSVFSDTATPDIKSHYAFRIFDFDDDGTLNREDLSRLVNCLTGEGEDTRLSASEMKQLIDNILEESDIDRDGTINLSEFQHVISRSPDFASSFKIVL
Nature of the experiment: FP assay, 384-well format (screen). As to conditions: for 384-well SCREEN Efficacy (%) / 384-well SCREEN Confirm? / IC50: F-αIIb peptide; for 384-well SCREEN Confirm?: YES/NO; for IC50: read-out: 384-well SCREEN IC50. Also on record: 384-well SCREEN Efficacy (%): concentration or dose not given beside the values.

For experiment [2], the target named is T2, GST-CIB1 : F-scrambled peptide (Homo sapiens, UniProt Q99828).
T2 construct: made in house; host or cells: BL-21 plus RIL cells (E. coli)
T2 sequence (Q99828 1-191): T1 sequence (Q99828 1-191)
Nature of the experiment: FP scrambled-peptide counter screen, 384-well format. Conditions: F-scrambled peptide; for 384-well COUNTERSCREEN Confirm?: *: Curve in opposite direction; for IC50: read-out: 384-well COUNTERSCREEN IC50. (The purpose of a counterscreen is to sort out artefacts and off-target activity.)

Experiment [3] concerns the target T3, CIB1 and αIIb interaction (CIB1-GST : F-αIIb peptide) (Homo sapiens, UniProt Q99828).
T3 construct: made in house; host or cells: BL-21 plus RIL cells (E. coli)
T3 sequence (Q99828 1-191): T1 sequence (Q99828 1-191)
Kind of experiment: FP assay, 1536-well qHTS format (primary and confirmatory screen). As to conditions: for CONFIRMATORY SCREEN Confirm?: YES/NO call; for CONFIRMATORY SCREEN Curve Class: qHTS curve class; for CONFIRMATORY SCREEN Curve Class / Curve Class: negative sign = inhibitory curve; for CONFIRMATORY SCREEN Efficacy (%) / Efficacy (%): negative = inhibition.

Experiment [4] has as its target T2, GST-CIB1 : F-scrambled peptide. Nature of the experiment: FP scrambled-peptide counter screen, 1536-well format. As to conditions: scrambled-peptide counterscreen; for COUNTERSCREEN Confirm?: YES/NO call; for COUNTERSCREEN Curve Class: qHTS curve class; for IC50: read-out: COUNTERSCREEN IC50.
The mark [5] stands for this setting: confirmatory screen, read-out: CONFIRMATORY SCREEN IC50.
[6] abbreviates: qHTS primary screen hits, Table S2.
Where [7] appears, read: qHTS primary screen hits, Table S2, several classes where COUNT > 1.
Setting [8] is: qHTS primary screen hits, Table S2, read-out: IC50.

With `CC(=O)N1CCN(c2ccc(OCc3nn(C)c(C)c3-c3cccc4c(CCCOc5cccc6ccccc56)c(C(=O)O)n(Cc5cccnc5)c34)cc2)CC1` [NCGC00347174-02], in experiment [1], the “384-well SCREEN Efficacy (%)” value is 52%, the “384-well SCREEN Confirm?” value is “YES” and the IC50 is 28.2 µM. Also, in experiment [2], the “384-well COUNTERSCREEN Efficacy (%)” value turned out to be 15%, the “384-well COUNTERSCREEN Confirm?” value is “YES” and the IC50 was above 120 µM. For the same molecule, in experiment [3] (confirmatory screen), the “CONFIRMATORY SCREEN Confirm?” value was “YES”, the “CONFIRMATORY SCREEN Curve Class” value was -2.2 and the “CONFIRMATORY SCREEN Efficacy (%)” value is -77%. Also, in experiment [3] (setting [5]), the IC50 is 22.4 µM. Besides, the “Efficacy (%)” value in experiment [3] (setting [6]) is -31%. Further, the “Curve Class” value in experiment [3] (setting [7]) was -2.4. In addition, the IC50 in experiment [3] (setting [8]) worked out at 34.1 µM. For the same molecule, in experiment [4], the “COUNTERSCREEN Efficacy (%)” value is recorded as -33%, the “COUNTERSCREEN Confirm?” value is “YES” and the “COUNTERSCREEN Curve Class” value turned out to be 4.

In the case of `Cc1c(C)n(Cc2ccc(-c3ccccc3C(=O)O)cc2)c2ccc(C(=O)N[C@@H](C)c3ccc([N+](=O)[O-])cc3)cc12` [NCGC00347955-04], in experiment [1], the “384-well SCREEN Efficacy (%)” value was 56%, the “384-well SCREEN Confirm?” value was “YES” and the IC50 amounted to 12.6 µM. In experiment [2], the “384-well COUNTERSCREEN Efficacy (%)” value amounted to 32%, the “384-well COUNTERSCREEN Confirm?” value is “YES” and the IC50 was above 120 µM. Moreover, in experiment [3] (confirmatory screen), the “CONFIRMATORY SCREEN Confirm?” value is reported as “YES”, the “CONFIRMATORY SCREEN Curve Class” value is -1.2 and the “CONFIRMATORY SCREEN Efficacy (%)” value is given as -52%. Moreover, the IC50 in experiment [3] (setting [5]) turned out to be 22.4 µM. For the same molecule, in experiment [4], the “COUNTERSCREEN Efficacy (%)” value was determined as 95%, the “COUNTERSCREEN Confirm?” value is on record as “YES”, the “COUNTERSCREEN Curve Class” value was 3 and the IC50 is 89.1 µM.

For the molecule `CCc1nnc(NS(=O)(=O)c2ccc(NC(=S)NC(=O)/C=C/c3ccc(F)cc3)cc2)s1` [NCGC00351476-01], in experiment [1], the “384-well SCREEN Efficacy (%)” value came to 30%, the “384-well SCREEN Confirm?” value is given as “YES” and the IC50 was 4.5 µM. In experiment [2], the “384-well COUNTERSCREEN Efficacy (%)” value is given as -30% and the IC50 was 5 µM. Moreover, in experiment [3] (confirmatory screen), the “CONFIRMATORY SCREEN Confirm?” value is recorded as “YES”, the “CONFIRMATORY SCREEN Curve Class” value is -1.2 and the “CONFIRMATORY SCREEN Efficacy (%)” value is reported as -36%. Also, the IC50 in experiment [3] (setting [5]) was 8.9 µM. Further, the “Efficacy (%)” value in experiment [3] (qHTS FP screen hits, Table S2) is given as -29%. The “Curve Class” value in experiment [3] (qHTS FP screen hits, Table S2, one class per curve where COUNT > 1) is on record as -1.2. The IC50 in experiment [3] (qHTS FP screen hits, Table S2, read-out: IC50) stood at 7.9 µM. Besides, in experiment [4], the “COUNTERSCREEN Efficacy (%)” value is 57%, the “COUNTERSCREEN Confirm?” value is listed as “YES”, the “COUNTERSCREEN Curve Class” value was determined as 3 and the half-inhibitory concentration (IC50) stood at 70.8 µM.

Consider `NS(=O)(=O)c1ccc(Cc2c(-c3cccc(-c4ccccc4F)c3)nn(-c3nc(C(=O)O)cs3)c2O)cc1.O=C(O)C(F)(F)F` [NCGC00356464-01], for which, in experiment [1], the “384-well SCREEN Efficacy (%)” value worked out at 57%, the “384-well SCREEN Confirm?” value was “YES” and the IC50 came out at 22.4 µM. Besides, the “Confirm and Selective?” value in experiment [1] (selective toward αIIb: negative curve class and/or IC50 ratio of >3-fold and/or >2-fold efficacy vs scrambled peptide) is “Inconclusive”. In addition, in experiment [2], the “384-well COUNTERSCREEN Efficacy (%)” value is listed as 34%, the “384-well COUNTERSCREEN Confirm?” value is given as “Inconclusive” and the IC50 turned out to be 10 µM. In experiment [3] (confirmatory screen), the “CONFIRMATORY SCREEN Confirm?” value was “YES”, the “CONFIRMATORY SCREEN Curve Class” value was -1.2 and the “CONFIRMATORY SCREEN Efficacy (%)” value is given as -74%. Also, the IC50 in experiment [3] (setting [5]) is 39.8 µM. Besides, in experiment [3] (setting [6]), the “Efficacy (%)” value is reported as -63%. In addition, the “Curve Class” value in experiment [3] (setting [7]) is recorded as -2.2. Also, the IC50 in experiment [3] (setting [8]) turned out to be 79.4 µM. In experiment [4], the “COUNTERSCREEN Efficacy (%)” value is on record as -32%, the “COUNTERSCREEN Confirm?” value is “YES” and the “COUNTERSCREEN Curve Class” value is 4.

The values above are taken from PMC11249646, “Small-Molecule Disruptors of the Interaction between Calcium- and Integrin-Binding Protein 1 and Integrin αIIbβ3 as Novel Antiplatelet Agents” (ACS Pharmacology & Translational Science, 2024).
